The values that follow come from US10202650B2, “Methods for monitoring ELOVL2, KLF14 and PENK gene expression following treatment with vitamin C” (The Regents of the University of California, priority 2016, dated 2019).

Holding throughout (assay type): cell-based, human
Assay [1] has as its system ELOVL2. Nature of the assay: Expression of age-related marker (ARM, e.g. ELOVL2) in WI38 fibroblasts, Example 1. The method, then:
(§1) The proliferation effects of vitamin C on WI38 fibroblasts were tested. This cell line is useful as an aging model since it is a mortal human cell line that follows the Hayflick limit, in that it undergoes a certain number of cell divisions before stopping. The senescence level in WI38 increased as the cell line divided. […] A membrane-soluble derivative of vitamin C, 6-O-Palmitoyl-L-ascorbic acid (PalmAA), which has an additional fatty acid that allows it to pass through the cell membrane, was also tested. The oxidized derivative of vitamin C, dehydroascorbic acid (DHAA), as Vitamin C is actively converted to DHAA in cell culture media, was tested as well. Insulin was also added to this experiment to upregulate Glut-1 transporter, through which DHAA enters the cell.
A) Cell images of 12-well plate treated with low concentration vitamin C at Day 0, 4 and 5 for PD46. B) Confluency plot calculated through ImageJ of PD46, n=2. […] F) Confluency plot calculated through ImageJ of PD48, n=2. […]
FIG. 2 illustrates phenotypic and genotypic effects of vitamin C treatment were analyzed on younger WI38 PD42 and older WI38 PD58 fibroblasts. […] B) Confluency plot calculated through ImageJ of PD42, n=2. […] F) Confluency plot calculated through ImageJ of PD58, n=2. […]
A) Cell images of 12-well at Day 0 and Day 8 of treatment for PD55. B) Confluency plot calculated through ImageJ for PD55, n=2. […]

A further assay relates to WI38 fibroblasts. Nature of the assay: Proliferation (confluency) of WI38 fibroblasts, Example 1. Particulars: for cell proliferation: concentration not stated. The protocol: as §1
A) Cell images of 12-well plate treated with low concentration vitamin C at Day 0, 4 and 5 for PD46. B) Confluency plot calculated through ImageJ of PD46, n=2. C) and D) Expression graphs for ARM (e.g., ELOVL2) and SLC2A1 for PD46, n=3. E) Cell images of 12-well treated with high concentration vitamin C at Day 0, 4 and 5 for PD48. F) Confluency plot calculated through ImageJ of PD48, n=2. G) and […]) Expression graphs for ARM and SLC2A1 for PD48, n=3.
FIG. 2 illustrates phenotypic and genotypic effects of vitamin C treatment were analyzed on younger WI38 PD42 and older WI38 PD58 fibroblasts. A) Cell images of 12-well at Day 0, 1 and 2 of treatment for PD42. B) Confluency plot calculated through ImageJ of PD42, n=2. C) and D) Expression graphs for ARM (e.g., ELOVL2) and SLC2A1 for PD42, n=3. E) Cell images of 12-well at Day 0, 5 and 7 of treatment for PD58. F) Confluency plot calculated through ImageJ of PD58, n=2. G) and H) Expression graphs for ARM (e.g., ELOVL2) and SLC2A1 for […], n=3. I) Cell images of senescence and DAPI staining of PD45.5 fibroblasts. J) Graph of percentage senescence for younger PD32 fibroblast and older PD45.5 fibroblast. n=3.
A) Cell images of 12-well at Day 0 and Day 8 of treatment for PD55. B) Confluency plot calculated through ImageJ for PD55, n=2. C) and D) Expression graph for ARM (e.g., ELOVL2) and SLC2A1 for PD55, n=3.
A) Diagram of postulated pathway for interconversion of DHAA to vitamin C and their effect on fibroblast cells. B) Cell images of 12-well at Day 10 of treatment for PD54. C) Confluency plot calculated through ImageJ of PD54, n=2. D and E) Expression graphs for ARM (e.g., ELOVL2) and SLC2A1 for PD54, n=3. F) Graph of percentage senescence for younger PD32 fibroblast and older PD45.5 fibroblast. n=3. G) Fluorescent ROS assay showing fluorescent ROS relative to total fibroblasts in PD48 fibroblasts.

The test system of assay [2] is WI38 cells at PD55. The assay can be described thus: Cell senescence of WI38 PD55 by beta gal staining assay. The method, then:
(§2) WI38 cells at PD55 (55th population doubling) were incubated with different concentrations of vitamin C (Vc), L-dehydro ascorbic acid (DHAA or DHA), or L-ascorbic acid 2-phosphate (VcP). DHAA (or DHA) is an oxidized form of vitamin C. L-ascorbic acid 2-phosphate (VcP) is a vitamin C derivative. Three concentrations were used for each tested compound and the concentrations included 0.3 mM (equivalent to […]), 1.2 mM, or 1.8 mM.

The test system of assay [3] is ELOVL2. The assay can be described thus: ELOVL2 expression in aging WI38 cells (PD55). The method, then:
as §2
The expression of ELOVL2 is also observed to be increased with a low concentration of vitamin C and all concentrations of L-ascorbic acid 2-phosphate (VcP) but not with DHAA (FIG. 27).

Assay [4] concerns WI38 cells at PD55. The assay can be described thus: WI38 PD55 confluency / cell proliferation, Example 6. The protocol:
as §2

The test system of another assay is aged fibroblast. Nature of the assay: Reversal of biological age / reprogramming of aged fibroblast into iPSCs. Particulars: low concentration. The method, then:
As used herein, the terms “biological age (bioage),” “chemical age,” “methylomic age,” and “molecular age” are equivalent or synonymous. The biological age is determined using a set of age-associated markers (e.g., epigenetic markers) of a subject or an organism. In the current disclosure, the biological age is determined from an analysis of the modification status of specific CpG dinucleotide and, in particular, e.g., the methylation status at the C-5 position of cytosine.

The mark [5] stands for this setting: all concentrations (0.3 mM, 1.2 mM, 1.8 mM).
The mark [6] stands for this setting: all three concentrations (0.3 mM, 1.2 mM, 1.8 mM).

Each structure is given as a SMILES string.

For the compound `CCCCCCCCCCCCCCCC(=O)OC[C@H](O)[C@H]1OC(=O)C(O)=C1O` [6-O-Palmitoyl L-ascorbic acid, 6-O-Palmitoyl-L-ascorbic acid], in the assay with ELOVL2 [1], the “gene expression change in the age related marker” value was “caused no gene expression change in the age related marker”. The cell proliferation entry in the assay with WI38 fibroblasts was “induced minimal proliferation”.
Regarding `O=C1O[C@H]([C@@H](O)CO)C(=O)C1=O` [DHAA, dehydroascorbic acid], the “protection against cell senescence” value in the assay on WI38 cells at PD55 [2] (setting [5]) is “did not exert a protective effect against cell senescence”. The “expression of ELOVL2” value in the assay on ELOVL2 [3] (setting [5]) is reported as “not”. Moreover, the cell proliferation entry in the assay on WI38 cells at PD55 [4] (setting [6]) was “increased cell proliferation is not observed”; in the assay with WI38 fibroblasts, “induced lower cell proliferation compared to an equal concentration of vitamin C”.
As to `O=C1O[C@H]([C@@H](O)CO)C(O)=C1OP(=O)(O)O` [L-ascorbic acid 2-phosphate], in the assay with WI38 cells at PD55 [2] (setting [5]), the “protection against cell senescence” value is listed as “protective against cell senescence”. In addition, in the assay on ELOVL2 [3] (setting [5]), the “expression of ELOVL2” value is “increased”. In addition, the cell proliferation result in the assay with WI38 cells at PD55 [4] (setting [6]) is “cell proliferation is observed”.
As to `O=C1O[C@H]([C@@H](O)CO)C(O)=C1O` [vitamin C, L-ascorbic acid], the “protection against cell senescence” value with WI38 cells at PD55 [2] (low concentration) is listed as “protective against cell senescence”. Besides, the “expression of ELOVL2” value in the assay on ELOVL2 [3] (low concentration) is given as “increased”. In addition, the cell proliferation rate entry in the assay with WI38 cells at PD55 [4] (higher concentration, 1.2 mM or 1.8 mM, relative to 0.3 mM) is “slower cell proliferation rate relative to the concentration at 0.3 mM”. Besides, in the assay on WI38 cells at PD55 [4] (low concentration, 0.3 mM), the cell proliferation result is given as “increase cell proliferation”. Further, in the assay with WI38 fibroblasts (50 μg/mL), the “proliferative effect, older vs younger fibroblast cells” value is “more pronounced on older fibroblast cells compared to younger fibroblast cells”. Moreover, in the assay on WI38 fibroblasts (higher concentrations, 200 μg/mL to 500 μg/mL), the “fibroblast cell growth / cell death” value is on record as “slowed or inhibited fibroblast cell growth while causing cell death”. In addition, the fibroblast proliferation entry in the assay with WI38 fibroblasts (low concentrations, 50 μg/mL to 100 μg/mL) is reported as “induced fibroblast proliferation”. Moreover, in the assay with aged fibroblast, the biological age result is listed as “reversed” and the “reprogramming of aged fibroblast into iPSCs” value is given as “reverted into iPSCs from aged fibroblast”.
